Experimental findings from PMC13379085 (PLOS Neglected Tropical Diseases, 2026) are described below.

For the experiment, the target named is T1, lysozyme (Homo sapiens, UniProt P61626).
T1 sequence (P61626 19-148): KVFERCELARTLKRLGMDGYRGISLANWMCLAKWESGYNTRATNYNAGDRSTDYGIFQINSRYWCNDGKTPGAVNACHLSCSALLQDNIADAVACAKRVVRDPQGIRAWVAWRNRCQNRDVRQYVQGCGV
As to the kind of experiment: Affinity capture proteomics with 197-bead in Leishmania infected macrophage lysate. Format: binding. More on the design: endogenous in cells; host or cells: PMA-differentiated THP-1 macrophages infected with L. mexicana (lysate). The following applies: 197-bead vs control bead. How it is done: To generate cell lysate, ten million THP-1 cells were plated overnight in a 10 cm dish, then differentiated with 150 nM phorbol 12-myristate 13-acetate (PMA) for 72 hours. The resulting macrophages were infected with L. mexicana promastigotes at a multiplicity of infection of 1:10 and incubated for 18 hours. After infection, cells were washed three times with PBS to remove extracellular promastigotes. Cells were then collected by scraping and pelleted with centrifugation. The cell pellet was resuspended in cell buffer (50mM Tris-HCl, 150mM NaCl, 2mM EDTA, 0.5% triton-x-100) and subjected to five freeze-thaw cycles. Samples were centrifuged 14,000g x 10 minutes to remove cellular debris. Protein concentration of supernatant was determined by BCA assay and cell lysate was stored at -80 ° C until further use.
Functionalized agarose beads were made as follows. NHS activated agarose beads were washed three times to remove acetone and resuspended in PBS to create a slurry. 494 (197 with ligation chemical handle) was prepared in 0.3 mL at 25mM in DMSO and 1.7 mL PBS was added to 1 mL of agarose slurry for a final volume of 3 mL at a concentration of 2.5mM (10% v/v DMSO). […]
The peptide samples were resuspended in 15 μL of 5% ACN/0.1% formic acid and analyzed by LC-MS/MS using an Easy nLC 1200 coupled to a QExactive HF mass spectrometer (Thermo Scientific). […]

For `O=C(CNCc1cccc(F)c1)Nc1ccc(-n2cc(C(F)(F)F)nc2-c2ccc(-c3ccc(C(F)(F)F)cc3)cc2)cc1` [Compound 197], the “affinity capture abundance of lysozyme, Log2 fold change” value was found to be 6.57.
